Assay [1] deals with T1, Gamma-secretase (Homo sapiens) (UniProt Q96BI3+Q9NZ42+Q8WW43+P49768+Q92542+P49810). In words: Inhibition of gamma-secretase in HEK293 cells co-overexpressing APP Swedish mutant assessed as inhibition of amyloid beta 40 production at 1 uM by luciferase reporter gene assay relative to DAPT. It counts as cell-based. To be noted: values are per cent of control.
Assay [2] deals with T1, Gamma-secretase (Homo sapiens). In words: Inhibition of gamma-secretase in HEK293 cells co-overexpressing APP Swedish mutant assessed as inhibition of amyloid beta 42 production at 1 uM by luciferase reporter gene assay relative to DAPT. In kind it is cell-based. To be noted: values are per cent of control.
For assay [3] the target is unchanged. In words: Inhibition of gamma-secretase in HEK293 cells co-overexpressing NotchdeltaE assessed as inhibition of notch cleavage at 1 uM by luciferase reporter gene assay relative to DAPT. In kind it is cell-based. To be noted: for residual activity: values are per cent of control.
Assay [4] shares this target. In words: Inhibition of gamma-secretase in HEK293 cells co-overexpressing NotchdeltaE assessed as inhibition of notch cleavage at 100 uM by luciferase reporter gene assay relative to DAPT. In kind it is cell-based. To be noted: values are per cent of control.
For assay [5] the target is unchanged. In words: Inhibition of gamma-secretase in HEK293 cells co-overexpressing APP Swedish mutant assessed as inhibition of amyloid beta 40 production at 100 uM by luciferase reporter gene assay relative to DAPT. It counts as cell-based. To be noted: for residual activity: values are per cent of control.
Assay [6] shares this target. In words: Inhibition of gamma-secretase in HEK293 cells co-overexpressing APP Swedish mutant assessed as inhibition of amyloid beta 42 production at 100 uM by luciferase reporter gene assay relative to DAPT. To be noted: for residual activity: values are per cent of control. It counts as cell-based.
Assay [7] shares this target. In words: Inhibition of gamma-secretase in HEK293 cells co-overexpressing NotchdeltaE assessed as inhibition of notch cleavage at 3 uM by luciferase reporter gene assay relative to DAPT. To be noted: values are per cent of control. It counts as cell-based.
The target is the same in assay [8]. In words: Inhibition of gamma-secretase in HEK293 cells co-overexpressing NotchdeltaE assessed as inhibition of notch cleavage at 30 uM by luciferase reporter gene assay relative to DAPT. In kind it is cell-based. To be noted: values are per cent of control.
The target is the same in assay [9]. In words: Inhibition of gamma-secretase in HEK293 cells co-overexpressing APP Swedish mutant assessed as inhibition of amyloid beta 40 production at 3 uM by luciferase reporter gene assay relative to DAPT. In kind it is cell-based. To be noted: values are per cent of control.
The target is the same in assay [10]. In words: Inhibition of gamma-secretase in HEK293 cells co-overexpressing APP Swedish mutant assessed as inhibition of amyloid beta 40 production at 30 uM by luciferase reporter gene assay relative to DAPT. It counts as cell-based. The note with it: values are per cent of control.
The target is the same in assay [11]. In words: Inhibition of gamma-secretase in HEK293 cells co-overexpressing APP Swedish mutant assessed as inhibition of amyloid beta 42 production at 3 uM by luciferase reporter gene assay relative to DAPT. In kind it is cell-based. To be noted: values are per cent of control.
Assay [12] shares this target. In words: Inhibition of gamma-secretase in HEK293 cells co-overexpressing APP Swedish mutant assessed as inhibition of amyloid beta 42 production at 30 uM by luciferase reporter gene assay relative to DAPT. It counts as cell-based. The note with it: values are per cent of control.
The target in assay [13] is Gamma-secretase. In words: Inhibition of gamma-secretase in HEK293 cells co-overexpressing APP Swedish mutant assessed as inhibition of amyloid beta 40 production by luciferase reporter gene assay. It counts as cell-based, Homo sapiens.
For assay [14], the target named is Gamma-secretase. In words: Inhibition of gamma-secretase in HEK293 cells co-overexpressing APP Swedish mutant assessed as inhibition of amyloid beta 42 production by luciferase reporter gene assay. In kind it is cell-based, Homo sapiens.
The target of assay [15] is Gamma-secretase. In words: Inhibition of gamma-secretase in HEK293 cells co-overexpressing NotchdeltaE assessed as inhibition of notch cleavage by luciferase reporter gene assay. In kind it is cell-based, Homo sapiens.

pIC50: −log10 of the molar value. The source made the active and inactive calls. The rule behind the calls is not given here. A value given as a limit tells only on which side of the number the result lay.

In the case of `CCC(Cc1ccc(OC)c(CNC(=O)c2ccc(C(F)(F)F)cc2)c1)C(=O)O` (stereo unspecified), the residual activity in assay [1] came to 89.5%; in assay [2], 101%; in [3] it was 31.2%; in [4], 0%.
`COc1ccc(CCC(=O)O)cc1CNC(=O)c1ccc(C(F)(F)F)cc1`: the residual activity in assay [1] turned out to be 104%; in assay [5], 112%; in assay [2], 102%; in assay [6], 104%.
As to `CCC(Cc1ccc(OC)c(C(=O)NCc2ccc(C(F)(F)F)cc2)c1)C(=O)O` (stereo unspecified), the residual activity is 82% in assay [1]; 41% in assay [5]; 88.5% in [2]; 15.2% in [6]; 102% in assay [3]; 8.9% in [4].
Consider `CSc1ccc(/C=C2/C(C)=C(CC(=O)O)c3cc(F)ccc32)cc1` [SULINDAC SULFIDE], for which the residual activity in assay [7] was 90.7%; in [8], 43.9%; in assay [9] it was 98.4%; in [10], 88.6%; in assay [11] it was 97.1%; in assay [12] it was 60.3%. In addition, the pIC50 in [13] was 3.67; in assay [14] it was 4.08; in [15], 4.28.
Consider `CCC(Cc1ccc(OC)c(CNC(=O)c2ccc(Oc3ccccc3)cc2)c1)C(=O)O` (stereo unspecified), for which the residual activity was found to be 103% in assay [1], 119% in [5], 103% in [2] and 145% in assay [6].
Take `CC[C@H](Cc1ccc(OC)c(C(=O)NCc2ccc(C(F)(F)F)cc2)c1)C(=O)O`: the inhibition result in [5] and in assay [6] was “Active” each time. Besides, the figures for the negative logarithm of the IC50 (pIC50) in assay [13], in assay [14] and in [15] were 4.42, 4.47 and less than 4.00, respectively.
Turning to `CCC(Cc1ccc(OC)c(CNC(=O)c2ccc(OCC(F)(F)F)cc2)c1)C(=O)O` (stereo unspecified), the residual activity in assay [1] came to 118%; in assay [5] it was 136%; in assay [2] it was 119%; in [6] it was 133%; in [4], 84%.
Regarding `CCC(Cc1ccc(F)c(C(=O)NCc2ccc(OC(F)(F)F)cc2)c1)C(=O)O` (stereo unspecified), the residual activity in [1] worked out at 90.6%; in [5], 42.6%; in [2] it was 87.4%; in assay [6], 55.7%; in assay [3], 67.2%; in assay [4], 0%.
As to `COc1ccc(CC(C)C(=O)O)cc1CNC(=O)c1ccc(C(F)(F)F)cc1` (stereo unspecified), the residual activity in [1] was 114%; in [5], 132%; in assay [2], 109%; in [6] it was 139%.
With `CCC(Cc1ccc(F)c(C(=O)NCc2ccc(C(F)(F)F)cc2)c1)C(=O)O` (stereo unspecified), the residual activity stood at 77.6% in assay [1]; 13% in assay [5]; 63.3% in [2]; 0% in assay [6]; 53.8% in assay [3]; 38.5% in [4].
For the compound `CCC(Cc1ccc(F)c(C(=O)NCc2ccc(Oc3ccccc3)cc2)c1)C(=O)O` (stereo unspecified), the residual activity stood at 89.8% in assay [1]; 63.2% in assay [5]; 99.7% in [2]; 106% in [6]; 6.3% in assay [3]; 6.8% in [4].
As to `CC[C@@H](Cc1ccc(OC)c(C(=O)NCc2ccc(C(F)(F)F)cc2)c1)C(=O)O`, in [3], the inhibition result was “Active”. Besides, the pIC50 is less than 4.00 in assay [13], less than 4.00 in assay [14] and 4.62 in [15].
Consider `CC/C(=C\c1ccc(OC)c(C(=O)NCc2ccc(C(F)(F)F)cc2)c1)C(=O)O`, for which the pIC50 is 4.49 in [13], 4.65 in assay [14] and less than 4.00 in assay [15].
